From ChEMBL document CHEMBL1123320, “Studies in potential filaricides. 18. Synthesis of 2,2'-disubstituted 5,5'-dibenzimidazolyl ketones and related compounds as potential anthelmintics” (1986)

Columns and labels:
Mastomys natalensis [1] = experiment: Filaricidal activity against Brugia malayi in Mastomys at a dosage of 50 mg/kg x 5 administered intraperitoneally; type: functional; settings: route intraperitoneal
Mastomys natalensis [2] = experiment: Filaricidal activity against Dipetalonema viteae in Mastomys at a dosage of 175 mg/kg x 5 administered subcutaneous; type: functional
Mastomys natalensis [3] = experiment: Filaricidal activity against Brugia malayi in Mastomys at a dosage of 50 mg/kg x 5 administered intraperitoneally at a day of 21; type: functional; settings: route intraperitoneal
Mastomys natalensis [4] = experiment: Filaricidal activity against Brugia malayi in Mastomys at a dosage of 50 mg/kg x 5 administered intraperitoneally at a day of 42; type: functional; settings: route intraperitoneal
Mastomys natalensis [5] = experiment: Filaricidal activity against Brugia malayi in Mastomys at a dosage of 50 mg/kg x 5 administered intraperitoneally at a day of 63; type: functional; settings: route intraperitoneal
Mastomys natalensis [6] = experiment: Filaricidal activity against Brugia malayi in Mastomys at a dosage of 50 mg/kg x 5 administered intraperitoneally at a day of 8; type: functional; settings: route intraperitoneal
Mastomys natalensis [7] = experiment: Filaricidal activity against Brugia malayi in Mastomys at a dosage of 50 mg/kg x 5 administered intraperitoneally at a day of 91; type: functional; settings: route intraperitoneal
Mastomys natalensis [8] = experiment: Filaricidal activity against Dipetalonema viteae in Mastomys at a dosage of 175 mg/kg x 5 administered subcutaneous at a day of 21; type: functional
Mastomys natalensis [9] = experiment: Filaricidal activity against Dipetalonema viteae in Mastomys at a dosage of 175 mg/kg x 5 administered subcutaneous at a day of 42; type: functional
Mastomys natalensis [10] = experiment: Filaricidal activity against Dipetalonema viteae in Mastomys at a dosage of 175 mg/kg x 5 administered subcutaneous at a day of 8; type: functional
Rattus norvegicus [11] = experiment: Filaricidal activity against Litomosoides carinii in cotton rats at a dosage of 6 mg/kg x 5 administered intraperitoneally; type: functional; settings: route intraperitoneal
[12] = Filaricidal activity against Litomosoides carinii in cotton rats at a dosage of 6 mg/kg x 5 administered intraperitoneally at a day of 8; settings: route intraperitoneal
Cricetinae gen. sp. [13] = experiment: Anthelmintic activity against Ancylostoma ceylanicum in hamsters at a dose of 12.5x1 mg/kg administered perorally; type: functional, Cricetulus griseus
Cricetinae gen. sp. [14] = experiment: Anthelmintic activity against Ancylostoma ceylanicum in hamsters at a dose of 25x1 mg/kg administered perorally; type: functional, Cricetulus griseus
Cricetinae gen. sp. [15] = experiment: Anthelmintic activity against Ancylostoma ceylanicum in hamsters at a dose of 50x1 mg/kg administered perorally; type: functional, Cricetulus griseus
Cricetinae gen. sp. [16] = experiment: Anthelmintic activity against Ancylostoma ceylanicum in hamsters at a dose of 6.25 x1 mg/kg administered perorally; type: functional, Cricetulus griseus
Cricetinae gen. sp. [17] = experiment: Anthelmintic activity against Ancylostoma ceylanicum (hook worm) in hamsters at a dose of 50x1 mg/kg administered perorally; type: functional, Cricetulus griseus
Mastomys natalensis [18] = experiment: Filaricidal activity against Brugia malayi in Mastomys at a dosage of 200 mg/kg x 5 administered orally; type: functional; settings: route oral
Mastomys natalensis [19] = experiment: Filaricidal activity against Dipetalonema viteae in Mastomys at a dosage of 150 mg/kg x 5 administered orally; type: functional; settings: route oral
Mastomys natalensis [20] = experiment: Filaricidal activity against Dipetalonema viteae in Mastomys at a dosage of 25 mg/kg x 5 administered subcutaneous; type: functional
Mastomys natalensis [21] = experiment: Filaricidal activity against Brugia malayi in Mastomys at a dosage of 200 mg/kg x 5 administered orally at a day of 63; type: functional; settings: route oral
Mastomys natalensis [22] = experiment: Filaricidal activity against Brugia malayi in Mastomys at a dosage of 200 mg/kg x 5 administered orally at a day of 8; type: functional; settings: route oral
Mastomys natalensis [23] = experiment: Filaricidal activity against Brugia malayi in Mastomys at a dosage of 200 mg/kg x 5 administered orally at a day of 91; type: functional; settings: route oral
Mastomys natalensis [24] = experiment: Filaricidal activity against Dipetalonema viteae in Mastomys at a dosage of 150 mg/kg x 5 administered orally at a day of 21; type: functional; settings: route oral
Mastomys natalensis [25] = experiment: Filaricidal activity against Dipetalonema viteae in Mastomys at a dosage of 150 mg/kg x 5 administered orally at a day of 42; type: functional; settings: route oral
Mastomys natalensis [26] = experiment: Filaricidal activity against Dipetalonema viteae in Mastomys at a dosage of 150 mg/kg x 5 administered orally at a day of 8; type: functional; settings: route oral
Mastomys natalensis [27] = experiment: Filaricidal activity against Dipetalonema viteae in Mastomys at a dosage of 25 mg/kg x 5 administered subcutaneous at a day of 21; type: functional
Mastomys natalensis [28] = experiment: Filaricidal activity against Dipetalonema viteae in Mastomys at a dosage of 25 mg/kg x 5 administered subcutaneous at a day of 42; type: functional
Mastomys natalensis [29] = experiment: Filaricidal activity against Dipetalonema viteae in Mastomys at a dosage of 25 mg/kg x 5 administered subcutaneous at a day of 8; type: functional
Mus musculus [30] = experiment: Anthelmintic activity against Syphacia obvelata in mice at a dose of 100x1 mg/kg administered perorally; type: functional
Mus musculus [31] = experiment: Anthelmintic activity against Syphacia obvelata in mice at a dose of 25x1 mg/kg administered perorally; type: functional
Mus musculus [32] = experiment: Anthelmintic activity against Syphacia obvelata in mice at a dose of 50x1 mg/kg administered perorally; type: functional
Rattus norvegicus [33] = experiment: Anthelmintic activity against Hymenolepis nana in rats at a dose of 100x1 mg/kg administered perorally; type: functional
Rattus norvegicus [34] = experiment: Anthelmintic activity against Hymenolepis nana in rats at a dose of 250x1 mg/kg administered perorally; type: functional
Rattus norvegicus [35] = experiment: Anthelmintic activity against Hymenolepis nana in rats at a dose of 50x1 mg/kg administered perorally; type: functional
Rattus norvegicus [36] = experiment: Filaricidal activity against Litomosoides carinii in cotton rats at a dosage of 100 mg/kg x 5 administered orally; type: functional; settings: route oral
Rattus norvegicus [37] = experiment: Filaricidal activity against Litomosoides carinii in cotton rats at a dosage of 10 mg/kg x 5 administered intraperitoneally at a day of 42; type: functional; settings: route intraperitoneal
Mastomys natalensis [38] = experiment: Filaricidal activity against Brugia malayi in Mastomys at a dosage of 200 mg/kg x 5 administered orally at a day of 21; type: functional; settings: route oral
Mastomys natalensis [39] = experiment: Filaricidal activity against Brugia malayi in Mastomys at a dosage of 200 mg/kg x 5 administered orally at a day of 42; settings: route oral
Sigmodon hispidus [40] = experiment: Filaricidal activity against Litomosoides carinii in cotton rats at a dosage of 100 mg/kg x 5 administered orally at a day of 8; settings: route oral
Sigmodon hispidus [41] = experiment: Filaricidal activity against Litomosoides carinii in cotton rats at a dosage of 100 mg/kg x 5 administered orally at a day of 21; settings: route oral
Sigmodon hispidus [42] = experiment: Filaricidal activity against Litomosoides carinii in cotton rats at a dosage of 100 mg/kg x 5 administered orally at a day of 42; settings: route oral
Sigmodon hispidus [43] = experiment: Filaricidal activity against Litomosoides carinii in cotton rats at a dosage of 10 mg/kg x 5 administered intraperitoneally at a day of 8; settings: route intraperitoneal
Sigmodon hispidus [44] = experiment: Filaricidal activity against Litomosoides carinii in cotton rats at a dosage of 10 mg/kg x 5 administered intraperitoneally at a day of 21; settings: route intraperitoneal
Sigmodon hispidus [45] = experiment: Filaricidal activity against Litomosoides carinii in cotton rats at a dosage of 10 mg/kg x 5 administered intraperitoneally at a day of 42; settings: route intraperitoneal

CCN(CC)C(=O)N1CCN(C)CC1 [DIETHYLCARBAMAZINE]
Death (Mastomys natalensis [1]): 57.8%
Death (Mastomys natalensis [2]): 0%
Removal of microfilariae (Mastomys natalensis [3]): 88.6%
Removal of microfilariae (Mastomys natalensis [4]): 90.7%
Removal of microfilariae (Mastomys natalensis [5]): 71.6%
Removal of microfilariae (Mastomys natalensis [6]): 95.9%
Removal of microfilariae (Mastomys natalensis [7]): 91.6%
Removal of microfilariae (Mastomys natalensis [8]): 94.1%
Removal of microfilariae (Mastomys natalensis [9]): 51.6%
Removal of microfilariae (Mastomys natalensis [10]): 99.6%
Death (Rattus norvegicus [11]): 0%
Removal of microfilariae [12]: 97.1%

COC(=O)Nc1nc2cc(C(=O)c3ccc4[nH]c(NC(=O)OC)nc4c3)ccc2[nH]1
Animals cured (Cricetinae gen. sp. [13]): 0%
Worm reduction (Cricetinae gen. sp. [13]): 40.4%
Animals cured (Cricetinae gen. sp. [14]): 50%
Worm reduction (Cricetinae gen. sp. [14]): 60%
Animals cured (Cricetinae gen. sp. [15]): 100%
Animals cured (Cricetinae gen. sp. [16]): 0%
Worm reduction (Cricetinae gen. sp. [16]): 0%
Worm reduction (Cricetinae gen. sp. [17]): 100%
Death (Mastomys natalensis [18]): 97%
Death (Mastomys natalensis [1]): 99%
Death (Mastomys natalensis [19]): 100%
Death (Mastomys natalensis [20]): 100%
Removal of microfilariae (Mastomys natalensis [21]): 63.9%
Removal of microfilariae (Mastomys natalensis [22]): 0%
Removal of microfilariae (Mastomys natalensis [23]): 94%
Removal of microfilariae (Mastomys natalensis [3]): 60.1%
Removal of microfilariae (Mastomys natalensis [4]): 89%
Removal of microfilariae (Mastomys natalensis [5]): 89.4%
Removal of microfilariae (Mastomys natalensis [6]): 0%
Removal of microfilariae (Mastomys natalensis [7]): 93%
Removal of microfilariae (Mastomys natalensis [24]): 0%
Removal of microfilariae (Mastomys natalensis [25]): 100%
Removal of microfilariae (Mastomys natalensis [26]): 0%
Removal of microfilariae (Mastomys natalensis [27]): 58.8%
Removal of microfilariae (Mastomys natalensis [28]): 100%
Removal of microfilariae (Mastomys natalensis [29]): 0%
Animals cured (Mus musculus [30]): 100%
Animals cured (Mus musculus [31]): 0%
Animals cured (Mus musculus [32]): 66.6%
Animals cured (Rattus norvegicus [33]): 50%
Animals cured (Rattus norvegicus [34]): 100%
Animals cured (Rattus norvegicus [35]): 16.6%
Death (Rattus norvegicus [36]): 100%
Death (Rattus norvegicus [37]): 100%
Removal of microfilariae (Mastomys natalensis [38]): 0%
Removal of microfilariae (Mastomys natalensis [39]): 30%
Removal of microfilariae (Sigmodon hispidus [40]): 72%
Removal of microfilariae (Sigmodon hispidus [41]): 80.9%
Removal of microfilariae (Sigmodon hispidus [42]): 100%
Removal of microfilariae (Sigmodon hispidus [43]): 65.6%
Removal of microfilariae (Sigmodon hispidus [44]): 100%
Removal of microfilariae (Sigmodon hispidus [45]): 100%
